Source: the NIST ThermoML archive (doi:10.1021/je300557g)

Experiment: xn = mol fraction of the nth substance listed
Conditions: 101 kPa, Liquid; for mass density: Vibrating tube method

CCCC[n+]1cccc(C)c1.F[B-](F)(F)F [1-butyl-3-methylpyridinium tetrafluoroborate] + CCO
Conditions	kinematic viscosity, 293.15 K [m2/s]	kinematic viscosity, 303.15 K [m2/s]	kinematic viscosity, 313.15 K [m2/s]	kinematic viscosity, 323.15 K [m2/s]	mass density, 293.15 K [kg/m3]	mass density, 303.15 K [kg/m3]	mass density, 313.15 K [kg/m3]	mass density, 323.15 K [kg/m3]
x1 = 0.0521	2.07e-06	1.68e-06	1.4e-06	1.18e-06	855.55	847.17	838.85	830.02
x1 = 0.0964	2.67e-06	2.12e-06	1.75e-06	1.47e-06	900.79	892.48	884.31	875.68
x1 = 0.1964	4.31e-06	3.36e-06	2.71e-06	2.24e-06	977.43	969.49	961.48	953.37
x1 = 0.321	6.84e-06	5.15e-06	4.19e-06	3.39e-06	1041.5	1033.92	1026.2	1018.52
x1 = 0.3936	9.28e-06	6.82e-06	5.54e-06	4.49e-06	1068.86	1061.42	1053.9	1046.35
x1 = 0.4941	1.44e-05	1.03e-05	8.05e-06	6.24e-06	1098.93	1091.66	1084.35	1076.96
x1 = 0.59	2.21e-05	1.5e-05	1.15e-05	8.86e-06	1121.77	1114.64	1107.46	1100.21
x1 = 0.691	3.66e-05	2.32e-05	1.76e-05	1.28e-05	1141.6	1134.58	1127.48	1120.38
x1 = 0.7952	6.13e-05	3.68e-05	2.61e-05	1.81e-05	1158.8	1151.88	1144.87	1137.9
x1 = 0.85	8.37e-05	4.86e-05	3.28e-05	2.23e-05	1166.81	1159.93	1152.99	1146.06
x1 = 0.8992	0.000111	6.25e-05	4.03e-05	2.67e-05	1173.47	1166.61	1159.75	1152.86
x1 = 0.9477	0.00015	8.29e-05	5.08e-05	3.29e-05	1179.57	1172.74	1165.95	1159.11

CCCC[n+]1ccccc1.F[B-](F)(F)F [1-butylpyridinium tetrafluoroborate] + CO
Conditions	kinematic viscosity, 293.15 K [m2/s]	kinematic viscosity, 303.15 K [m2/s]	kinematic viscosity, 313.15 K [m2/s]	kinematic viscosity, 323.15 K [m2/s]	mass density, 293.15 K [kg/m3]	mass density, 303.15 K [kg/m3]	mass density, 313.15 K [kg/m3]	mass density, 323.15 K [kg/m3]
x1 = 0.0478	1.08e-06	8.99e-07	7.44e-07	6.21e-07	878.25	869.29	860.54	852.41
x1 = 0.0959	1.55e-06	1.27e-06	1.03e-06	8.64e-07	940.74	931.43	923.47	916
x1 = 0.1952	2.79e-06	2.21e-06	1.75e-06	1.44e-06	1026.08	1017.92	1010.59	1003.55
x1 = 0.2938	4.62e-06	3.53e-06	2.73e-06	2.2e-06	1080.36	1072.63	1065.38	1058.43
x1 = 0.3916	7.4e-06	5.61e-06	4.29e-06	3.41e-06	1117.45	1109.94	1102.7	1095.78
x1 = 0.4921	1.19e-05	8.77e-06	6.56e-06	5.13e-06	1145.14	1137.76	1130.52	1123.61
x1 = 0.5949	2e-05	1.4e-05	1.03e-05	7.68e-06	1166.53	1159.2	1152.11	1145.11
x1 = 0.6989	3.26e-05	2.22e-05	1.56e-05	1.16e-05	1183.41	1176.16	1169.22	1162.18
x1 = 0.7972	5.32e-05	3.4e-05	2.31e-05	1.65e-05	1196.34	1189.23	1182.46	1175.36
x1 = 0.8478	7.2e-05	4.49e-05	2.97e-05	2.07e-05	1202.15	1195.1	1188.42	1181.32
x1 = 0.8978	9.63e-05	5.72e-05	3.68e-05	2.51e-05	1207.4	1200.46	1193.84	1186.75
x1 = 0.9471	0.00013	7.39e-05	4.61e-05	3.06e-05	1212.3	1205.38	1198.8	1191.71

CCCC[n+]1ccc(C)cc1.F[B-](F)(F)F [1-butyl-4-methylpyridinium tetrafluoroborate] + CO
Conditions	kinematic viscosity, 293.15 K [m2/s]	kinematic viscosity, 303.15 K [m2/s]	kinematic viscosity, 313.15 K [m2/s]	kinematic viscosity, 323.15 K [m2/s]	mass density, 293.15 K [kg/m3]	mass density, 303.15 K [kg/m3]	mass density, 313.15 K [kg/m3]	mass density, 323.15 K [kg/m3]
x1 = 0.0477	1.02e-06	8.83e-07	7.78e-07	6.88e-07	876.71	867.94	858.74	849.6
x1 = 0.0958	1.42e-06	1.2e-06	1.02e-06	8.92e-07	936.07	927.56	918.89	910.02
x1 = 0.2055	2.83e-06	2.29e-06	1.91e-06	1.62e-06	1021.53	1013.48	1005.4	997.15
x1 = 0.2889	4.57e-06	3.6e-06	2.92e-06	2.44e-06	1062.26	1054.51	1046.65	1038.82
x1 = 0.3846	7.5e-06	5.73e-06	4.53e-06	3.7e-06	1095.45	1087.98	1080.32	1072.88
x1 = 0.4866	1.31e-05	9.56e-06	7.3e-06	5.78e-06	1121.16	1113.92	1106.46	1099.31
x1 = 0.589	2.12e-05	1.58e-05	1.15e-05	8.6e-06	1140.6	1133.51	1126.23	1119.29
x1 = 0.7073	3.61e-05	2.59e-05	1.9e-05	1.3e-05	1157.8	1150.84	1143.72	1136.94
x1 = 0.7963	6.42e-05	4.11e-05	2.8e-05	1.93e-05	1168.12	1161.22	1154.18	1147.48
x1 = 0.8459	8.43e-05	5.16e-05	3.41e-05	2.29e-05	1173.12	1166.24	1159.23	1152.56
x1 = 0.8947	0.00012	6.92e-05	4.41e-05	2.85e-05	1177.58	1170.73	1163.73	1157.09
x1 = 0.9465	0.000168	9.14e-05	5.59e-05	3.56e-05	1181.89	1175.06	1168.07	1161.45

CCCC[n+]1cccc(C)c1.F[B-](F)(F)F [1-butyl-3-methylpyridinium tetrafluoroborate] + CO
Conditions	kinematic viscosity, 293.15 K [m2/s]	kinematic viscosity, 303.15 K [m2/s]	kinematic viscosity, 313.15 K [m2/s]	kinematic viscosity, 323.15 K [m2/s]	mass density, 293.15 K [kg/m3]	mass density, 303.15 K [kg/m3]	mass density, 313.15 K [kg/m3]	mass density, 323.15 K [kg/m3]
x1 = 0.0481	1.03e-06	8.95e-07	7.88e-07	7e-07	876.92	868.11	858.9	850
x1 = 0.0975	1.45e-06	1.22e-06	1.06e-06	9.17e-07	937.91	929.46	920.91	912.45
x1 = 0.1973	2.72e-06	2.2e-06	1.88e-06	1.61e-06	1017.57	1009.42	1001.41	993.31
x1 = 0.3001	4.45e-06	3.44e-06	3.04e-06	2.54e-06	1067.85	1059.92	1052.02	1044.13
x1 = 0.4013	7.03e-06	5.64e-06	4.73e-06	3.95e-06	1101.07	1093.38	1085.61	1077.93
x1 = 0.4969	1.2e-05	9.04e-06	7.23e-06	5.68e-06	1123.81	1116.36	1108.79	1101.32
x1 = 0.5985	1.98e-05	1.45e-05	1.08e-05	8.38e-06	1142.18	1134.95	1127.63	1120.38
x1 = 0.6972	3.36e-05	2.31e-05	1.69e-05	1.27e-05	1156.2	1149.14	1142.07	1134.99
x1 = 0.7942	5.92e-05	3.53e-05	2.51e-05	1.76e-05	1167.41	1160.48	1153.59	1146.64
x1 = 0.8427	7.8e-05	4.59e-05	3.12e-05	2.13e-05	1172.3	1165.41	1158.59	1151.69
x1 = 0.8978	0.00011	6.28e-05	4.03e-05	2.67e-05	1177.37	1170.53	1163.75	1156.91
x1 = 0.9689	0.000171	9.3e-05	5.65e-05	3.61e-05	1183.27	1176.47	1169.72	1162.95

CCCC[n+]1ccc(C)cc1.F[B-](F)(F)F [1-butyl-4-methylpyridinium tetrafluoroborate] + CCO
Conditions	kinematic viscosity, 293.15 K [m2/s]	kinematic viscosity, 303.15 K [m2/s]	kinematic viscosity, 313.15 K [m2/s]	kinematic viscosity, 323.15 K [m2/s]	mass density, 293.15 K [kg/m3]	mass density, 303.15 K [kg/m3]	mass density, 313.15 K [kg/m3]	mass density, 323.15 K [kg/m3]
x1 = 0.0481	1.95e-06	1.61e-06	1.34e-06	1.14e-06	852	843.78	835.55	827.17
x1 = 0.0952	2.57e-06	2.07e-06	1.69e-06	1.41e-06	900.2	892.25	884.1	875.8
x1 = 0.1896	4.08e-06	3.17e-06	2.53e-06	2.08e-06	972.12	964.56	956.53	948.48
x1 = 0.2856	6.35e-06	4.76e-06	3.75e-06	3.03e-06	1024.13	1016.72	1008.96	1001.26
x1 = 0.3839	9.91e-06	7.25e-06	5.54e-06	4.4e-06	1063.87	1056.57	1049.08	1041.7
x1 = 0.5297	1.96e-05	1.44e-05	1.05e-05	7.4e-06	1107.23	1100.11	1092.88	1085.83
x1 = 0.5858	2.57e-05	1.76e-05	1.33e-05	9.33e-06	1120.51	1113.47	1106.29	1099.32
x1 = 0.6862	4e-05	2.78e-05	1.96e-05	1.36e-05	1140.91	1133.97	1126.84	1119.98
x1 = 0.7889	7.27e-05	4.37e-05	3.05e-05	2.08e-05	1158.26	1151.41	1144.3	1137.51
x1 = 0.8418	9.79e-05	5.71e-05	3.87e-05	2.59e-05	1166.08	1159.26	1152.16	1145.41
x1 = 0.8942	0.000132	7.41e-05	4.81e-05	3.15e-05	1173.2	1166.4	1159.32	1152.61
x1 = 0.946	0.000177	9.52e-05	5.94e-05	3.79e-05	1179.69	1172.89	1165.84	1159.18
